Where two headings read alike, the source gives them in different places.
Tests used:
INS-1 cells [1] = assay: INS-1 cell survival after Tm treatment (CellTiter-Glo, intracellular ATP); assay type: cell-based, rat; settings: for EC50: Rattus norvegicus, read-out: EC50
Description: A structure-activity-relationship (SAR) study was thus conducted to improve the weak potency of lead compound 5a. Newly synthesized or commercially available compounds were tested for their β-cell-protective activity against ER stress in rat INS-1 β-cells. […] Maximum activity value in the tables is reported as % rescue from Tm (0.1 μg/mL)-induced reduction of cell viability. The values for Tm treatment alone and control (DMSO, without Tm) treatment are designated as 0% and 100%, respectively in all tables. EC50 values (the concentrations that reach half-maximal activity) for INS-1 cell viability were calculated with GraphPad Prism from the data of ten 2-fold serial titration points in all tables. All experiments were performed in triplicate in all tables.
(§1) INS-1 cells or βTC6 cells were seeded at 3×10^3 cells/well in a 384-well plate and treated with compounds at the indicated concentrations. After 3 d treatment, the medium was aspirated and 20 μL/well of CellTiter-Glo reagent (Promega, WI, USA) was added for the detection of intracellular ATP levels. Cell viability was measured with an EnVision multilabel plate reader (PerkinElmer, MA, USA).

INS-1 cells [2] = assay: MTT viability assay, INS-1 cells treated with Tm; assay type: cell-based, rat; settings: Tm 0.1 μg/mL, 72 h, FIG. 3A
Source text: (§2) To rule out the possibility of an ATP-specific (rather than viability) effect of the compounds, we used the MTT assay, which measures the activity of NAD(P)H-dependent cellular oxidoreductase enzymes, as an orthogonal method to measure cell viability. […] To confirm that the protective effect of 9c on β cells is not INS-1 cell-specific, another β cell line, βTC6, was used. […] To determine whether the protective effect of 9c on β cells is specific to Tm-induced stress, we used another ER stressor, BFA, which inhibits a key guanine nucleotide exchange factor essential for the transport of proteins from the ER to the Golgi, to treat INS-1 cells.
INS-1 cells or βTC6 cells were seeded at 3×10^3 cells/well in a 384-well plate and treated with compounds at the indicated concentrations. After 3 d treatment, the medium was aspirated and 10 μl of MTT reagent (Cayman Chemical, MI, USA, prepared according to manufacturer's instruction) to each well was added and mixed gently for one minute on an orbital shaker. The cells were then incubated for three hours at 37° C. in a CO2 incubator. After incubation, add 100 μl of crystal dissolving solution to each well, and incubate for 4 hours in a 37° C. CO2 incubator. Viability will be measured for the absorbance to each sample at 570 nm using EnVision multilabel plate reader (PerkinElmer, MA, USA).

INS-1 cells [3] = assay: INS-1 cell viability after BFA treatment (CellTiter-Glo); assay type: cell-based, rat; settings: BFA 0.2 μg/mL, 9c 20 μM, 72 h, FIG. 3D
Source text: as §2, §1

[4] = system: cleaved caspase-3 and PARP; assay: Western blotting of cleaved caspase-3 and cleaved PARP in Tm-treated INS-1 cells; assay type: cell-based, rat; settings: Tm 0.1 μg/mL, 9c 20 μM, 24 h, FIG. 4A
Description: (§3) To determine whether the increase in cell viability following treatment with 9c was caused by a suppression of apoptotic cell death, levels of cleaved caspase-3 and cleaved PARP were assessed by Western blotting. Caspase-3, a member of executioner caspases, plays essential roles in initiating apoptotic signaling and executing the final stages of cell death as it is responsible for the proteolytic cleavage of many key proteins, such as the nuclear enzyme poly (ADP-ribose) polymerase (PARP) which is a family of proteins involved in a number of cellular processes involving DNA repair and cell death. […] However, upon severe ER stress, caspase 3 undergoes proteolytic cleavage to produce two subunits that dimerize to form the active enzyme, which in turns cleaves PARP.
INS-1 cells were seeded in 60-mm dishes at 8×10^5 cells/dish and treated for the indicated times. Cells were then washed with PBS and lysed with lysis buffer (Cell Signaling Technology, Danvers, Mass.) containing EDTA (Thermo, IL) and phosphatase inhibitors (Thermo). Aliquots of 20 μg total protein were separated on 7% SDS-PAGE gels (Life Technologies) and transferred to PVDF membranes (Life Technologies). The membranes were probed with primary antibodies followed by the appropriate HRP-conjugated secondary antibodies (goat anti-rabbit IgG and goat anti-mouse IgG, 1:3000; Santa Cruz Biotechnology, CA, USA). […]

INS-1 cells [5] = assay: Live-cell phase-contrast images of Tm-treated INS-1 cells; assay type: cell-based, rat; settings: Tm 0.1 μg/mL, 9c 20 μM, 24 h, FIG. 4B
Description: (A) INS-1 cells were treated with or without Tm (0.1 μg/mL) in the presence of 9c (20 μM) or DMSO for the indicated times. Cleaved caspase-3 and PARP were determined by Western blotting. A-Tubulin was used as a loading control. The data shown are representative of 3 independent experiments. (B) INS-1 cells were treated with or without Tm (0.1 μg/mL) in the presence of 9c (20 μM) or DMSO for 24 h, and live-cell phase-contrast images were acquired (magnification 10×).
as §3

primary human β cells = assay: TUNEL staining of primary human islet β cells treated with Tm; assay type: cell-based; settings: primary human islets, Tm 1 μg/mL, 9c 10 μM, 48 h; Tm alone 15%, DMSO 2.5%
Source text: We determined whether 9c suppresses the apoptosis of primary human β cells induced by Tm treatment as assessed by TUNEL, which detects fragmentation of DNA, a marker of apoptotic cell death. […] Next, we investigated whether 9c restored the Tm-induced insulin secretion defect. […] ER stress induces activation of three branches of UPR (PERK, IRE1α, and ATF6), leading to up-regulation of ATF4, XBP1s, Bip, […], CHOP and eventual activation caspase 3 and cell apoptosis, while diminishing the expression of PDX1, MAFA and insulin genes, leading to β cell dysfunction. Compound 9c protects β cell against ER stress-mediated dysfunction and death by down-regulating ATF4, XBP1s, Bip, GRP94, CHOP, and caspase 3 and up-regulating PDX1, MAFA and insulin genes.
Primary human islets were washed with PBS and fixed with 4% paraformaldehyde for 30 min. Fixed cells were then blocked in 5% normal donkey serum for 30 min. Polyclonal guinea pig anti-insulin (A0564, Dako, 1:500 dilution) was used as primary antibody. Donkey Cy3 anti-guinea pig IgG was used as the secondary antibody. TUNEL staining was performed with In Situ Cell Death Detection Kit-Fluorescein (Roche) according to the manufacturer's instructions. DAPI was used for nuclear counter-staining. Images were taken with an Olympus FV1000 confocal microscope.

COc1ccc(CNc2nc(N3CCCCC3CO)nc3ccccc23)cc1 (racemic) [Compound 9c, (1-(4-((4-methoxybenzyl)amino)quinazolin-2-yl)piperidin-2-yl)methanol]
Maximum activity (INS-1 cells [1]; % rescue from Tm (0.1 μg/mL)-induced reduction of cell viability, 72 h, Tm alone 0%, DMSO 100%, Table 3): 80.4%
maximum activity (rescue) (INS-1 cells [1]; % rescue from Tm-induced reduction of INS-1 cell viability): 80%
concentration exhibiting the maximum protective activity (INS-1 cells [1]; INS-1 cells, Tm 0.1 μg/mL, 72 h, based on dose-dependent curves): 5 µM
EC50 (INS-1 cells [1]; INS1, 72 h, INS-1 cell viability, Tm 0.1 μg/mL, 72 h, ten 2-fold serial titration points, Table 3): 560 ± 180 nM
EC50 (INS-1 cells [1]; INS1, running text, INS-1 cell viability in presence of Tm): 560 nM
viability of INS-1 cells (MTT) (INS-1 cells [2]): increase in viability of INS-1 cells
viability of INS-1 cells against BFA (INS-1 cells [3]): protected INS-1 cells against BFA
cleaved caspase-3 and cleaved PARP protein levels [4]: significantly reversed Tm-induced cleavage of both caspase-3 and PARP
viable cells observed (phase-contrast) (INS-1 cells [5]): significantly more viable cells
percentage of TUNEL+ insulin+ cells (primary human β cells): 3.5%

— patent publication US10815219B2, “2,4-diaminoquinazoline derivatives for inhibiting endoplasmic reticulum (ER) stress” (The Board of Regents of the University of Oklahoma, priority 2017, dated 2020)
